The values below come from patent publication US20250051333A1, “POLYMORPH OF KRAS INHIBITOR, PREPARATION METHOD THEREFOR, AND USE THEREOF” (GENFLEET THERAPEUTICS (SHANGHAI) INC., priority 2021, published 2025).

Structures are written as SMILES.

Assay type in all cases: physicochemical
Data set [1] can be described thus: Hygroscopicity by DVS testing. Particulars: for Desorption curve (cycle 1, desorption): DVS 25° C., from 30% RH to 95% RH. Here is the method:
The dynamic vapor sorption (DVS) analysis may be conducted on the DVS Intrinsic system from Surface Measurement Systems (SMS). Temperature: 25° C.: sample amount: 20-40 mg; protective gas and flow rate: N2, 200 mL/min; dm/dt: 0.002%/min; minimum dm/dt equilibration time: 10 min, maximum equilibration time. 180 min; RH range: room humidity to 95% RH to 0% RH to 95% RH: 0% RH to 95% RH to 0% RH; RH gradient: 10% RH (0% RH to 90% RH & 90% RH to 0% RH): 5% RH (90% RH to 95% RH & 95% RH to 90% RH).

Data set [2] can be described thus: Solid stability, 60° C./75% RH open, physical stability by XRPD. The note with it: for Crystalline form: XRPD; for Polymorphic transition: 60° C./75% RH open, up to 1 month. Here is the method:
Appropriate amounts of samples were weighed and let stand at 60° C./75% RH open to the atmosphere for 7 days, 14 days, and 1 month. Samples of different standing times were evaluated for the physical stability of the crystalline forms by XRPD.

A short description of data set [3]: Variable-temperature XRPD / heating test of crystalline forms. Here is the method: The X-ray powder diffraction (XRPD) analysis may be conducted on the X'Pert3 X-ray powder diffraction analyzer with the following parameters: Cu, kα; Kα1 (Å): 1.540598: Kα2 (Å): 1.544426; Kα2/Kα1 intensity ratio: 0.50; voltage: 45 kV; current: 40 mA; divergent slit: ⅛°; scan mode: continuous: scanning range: 3° to 40°: scanning step: 0.0263°; time of step: 46.665 s: scanning time: 5 min 03 s. Alternatively, the analysis may be conducted on the PANalytical Empyrean X-ray powder diffraction analyzer with the following parameters: Cu, kα; Kα1 (Å): 1.540598: Kα2 (Å); 1.544426: Kα2/Kα1 intensity ratio: 0.50: voltage: 45 kV; current; 40 mA: divergent slit: automatic; scan mode: continuous; scanning range: 3° to 40°; scanning step: 0.0167°; time of step: 17.780 s/33.020 s; scanning time: 5 min 32 s/10 min 13 s.

Data set [4] is described as follows: Solid stability, 60° C. sealed 24 hours and 40° C./75% RH open one week (XRPD, HPLC, KF). The note with it: for Purity (%): HPLC; for Water content (%): KF test; for Polymorphic transition or not: XRPD; for Relative to the initial (%): purity. The source says: Proton nuclear magnetic resonance may be conducted on the Bruker 400M nuclear magnetic resonance spectrometer, with deuterated chloroform, deuterated methanol, or dimethyl sulfoxide-d6 as the solvent. Water titration (KF test) may be conducted on the Metrohm 870 KF Titrinoplus from Sigma-Aldrich, with ultrapure water for calibration and Hydranal® R-Composite 5 as the titration reagent. HPLC-grade methanol was used to dissolve the solid sample.
High-performance liquid chromatography (HPLC) may be conducted on the Agilent 1260 high-performance liquid chromatograph system (Waters Xbridge C18, 150×4.6 mm, 5 μm column).
In order to further evaluate the solid stability of the crystalline forms of the present invention, appropriate amounts of samples were for at 60° C. in a sealed condition for 24 hours and at 40° C./75% RH open to the atmosphere for a week.

The nature of data set [5]: Humidity induction test: standing at various humidities at room temperature. Particulars: for Polymorphic transition or not: room temperature, open. The source says:
Some of the crystalline forms prepared in the above examples were investigated in a humidity induction test at room temperature.

The mark [6] stands for this setting: 60° C. sealed 24 hours and 40° C./75% RH open one week.
Where [7] appears, read: 43.2% RH (saturated potassium carbonate), 10 days.
The mark [8] stands for this setting: 43.2% RH (saturated potassium carbonate), 23 days.
The mark [9] stands for this setting: 60% RH (stability chamber), 10 days.
Where [10] appears, read: 60% RH (stability chamber), 23 days.
[11] abbreviates: 84.2% RH (saturated potassium chloride), 10 days.
[12] abbreviates: 84.2% RH (saturated potassium chloride), 23 days.
[13] abbreviates: 23 days open to the atmosphere at room temperature at 43.2% RH to 84.2% RH.

`C=CC(=O)N1CCN2c3c(c(=O)n(-c4c(C)ccnc4C(C)C)c4nc(-c5c(O)cccc5F)c(Cl)cc34)N(C)C(=O)[C@H]2C1` (single isomer, unassigned) [Amorphous form sample]: in data set [1], the “Desorption curve (cycle 1, desorption)” value is “a plateau was observed”. Moreover, the Crystalline form entry in data set [2] (60° C./75% RH (open), 1 month) is given as “Polymorphic transition”; in data set [2] (60° C./75% RH (open), 7 days), “Amorphous form”; in data set [2] (Initial, 0 days), “Amorphous form”. In data set [2], the “Polymorphic transition” value is recorded as “occurrence of polymorphic transition”.
Regarding `C=CC(=O)N1CCN2c3c(c(=O)n(-c4c(C)ccnc4C(C)C)c4nc(-c5c(O)cccc5F)c(Cl)cc34)N(C)C(=O)[C@H]2C1` [Crystalline form 4, (4aR,8R)-3-acryloyl-11-chloro-10-(2-fluoro-6-hydroxyphenyl)-8-(2-isopropyl-4-methylpyridin-3-yl)-6-methyl-2,3,4,4a,6,8-hexahydro-1H-pyrazino[1′,2′:4,5]pyrazino[2,3-c][1,8]naphthyridine-5,7-dione], the “Crystalline form change on heating (variable-temperature XRPD)” value in data set [3] (heating to 80° C. or 130° C. in a N2 atmosphere) was “no significant crystalline form changes were observed”.
With `C=CC(=O)N1CCN2c3c(c(=O)n(-c4c(C)ccnc4C(C)C)c4nc(-c5c(O)cccc5F)c(Cl)cc34)N(C)C(=O)[C@H]2C1` [Crystalline form 6, (4aR,8R)-3-acryloyl-11-chloro-10-(2-fluoro-6-hydroxyphenyl)-8-(2-isopropyl-4-methylpyridin-3-yl)-6-methyl-2,3,4,4a,6,8-hexahydro-1H-pyrazino[1′,2′:4,5]pyrazino[2,3-c][1,8]naphthyridine-5,7-dione], the “Purity (%)” value in data set [4] (40° C./75% RH/open, 1 week) was 99.56%; in data set [4] (60° C./sealed, 1 day) it was 99.62%; in data set [4] (Initial), 99.61%. The “Water content (%)” value in data set [4] (40° C./75% RH/open, 1 week) is 8.7%; in data set [4] (60° C./sealed, 1 day) it was 6.2%; in data set [4] (Initial) it was 9.0%. Also, the “Polymorphic transition or not” value in data set [4] (40° C./75% RH/open, 1 week) was “No”; in data set [4] (60° C./sealed, 1 day), “No”; in data set [5] (22.5% RH (saturated potassium acetate), 10 days), “No”; in data set [5] (22.5% RH (saturated potassium acetate), 23 days) it was “No”; in data set [5] (22.5% RH (saturated potassium acetate), 30 days) it was “No”; in data set [5] (setting [7]) it was “No”. Besides, the “Polymorphic transition or not” value in data set [5] (setting [8]) was “No”; in data set [5] (43.2% RH (saturated potassium carbonate), 30 days) it was “No”; in data set [5] (setting [9]), “No”; in data set [5] (setting [10]), “No”; in data set [5] (60% RH (stability chamber), 30 days), “No”; in data set [5] (setting [11]), “No”. The “Polymorphic transition or not” value is listed as “No” in data set [5] (setting [12]) and “No” in data set [5] (84.2% RH (saturated potassium chloride), 30 days). In data set [4] (setting [6]), the “HPLC purity change” value is “no significant decrease in HPLC purity”. For the same compound, the “Polymorphic transition” value in data set [4] (setting [6]) is “no polymorphic transition”; in data set [5] (30 days open to the atmosphere at room temperature at 22.5% RH to 84.2% RH) it was “neither crystalline form 6 (Example 12) nor crystalline form 3 (Example 3) exhibited polymorphic transition”; in data set [2] it was “mild transition”. Also, the “Relative to the initial (%)” value in data set [4] (40° C./75% RH/open, 1 week) came out at 99.95%; in data set [4] (60° C./sealed, 1 day) it was 100.01%. In data set [1], the “Desorption curve (cycle 1, desorption)” value is recorded as “a plateau can be observed”. For the same compound, the “Crystallinity after DVS testing” value in data set [1] (after DVS testing) is listed as “only slightly reduced”. Besides, in data set [2] (Initial, 0 days), the Crystalline form entry is on record as “Crystalline form 6”.
As to `C=CC(=O)N1CCN2c3c(c(=O)n(-c4c(C)ccnc4C(C)C)c4nc(-c5c(O)cccc5F)c(Cl)cc34)N(C)C(=O)[C@H]2C1` [Crystalline form 8, (4aR,8R)-3-acryloyl-11-chloro-10-(2-fluoro-6-hydroxyphenyl)-8-(2-isopropyl-4-methylpyridin-3-yl)-6-methyl-2,3,4,4a,6,8-hexahydro-1H-pyrazino[1′,2′:4,5]pyrazino[2,3-c][1,8]naphthyridine-5,7-dione], the “Polymorphic transition or not” value in data set [5] (setting [7]), in data set [5] (setting [8]), in data set [5] (setting [9]), in data set [5] (setting [10]), in data set [5] (setting [11]) and in data set [5] (setting [12]) was “No” throughout. Further, the “Polymorphic transition” value in data set [5] (setting [13]) is “neither crystalline form 8 (Example 40) nor crystalline form 9 (Example 42) exhibited polymorphic transition”.
For `C=CC(=O)N1CCN2c3c(c(=O)n(-c4c(C)ccnc4C(C)C)c4nc(-c5c(O)cccc5F)c(Cl)cc34)N(C)C(=O)[C@H]2C1` [Crystalline form 9, (4aR,8R)-3-acryloyl-11-chloro-10-(2-fluoro-6-hydroxyphenyl)-8-(2-isopropyl-4-methylpyridin-3-yl)-6-methyl-2,3,4,4a,6,8-hexahydro-1H-pyrazino[1′,2′:4,5]pyrazino[2,3-c][1,8]naphthyridine-5,7-dione], in data set [3] (heated to 100° C. and exposed to air), the “XRPD pattern after heating test” value was “identical to that before heating”. The “Polymorphic transition or not” value in data set [5] (setting [7]) was “No”. Moreover, the “Polymorphic transition” value in data set [5] (setting [13]) is on record as “neither crystalline form 8 (Example 40) nor crystalline form 9 (Example 42) exhibited polymorphic transition”.
For the compound `C=CC(=O)N1CCN2c3c(c(=O)n(-c4c(C)ccnc4C(C)C)c4nc(-c5c(O)cccc5F)c(Cl)cc34)N(C)C(=O)[C@H]2C1` [Crystalline form 11, (4aR,8R)-3-acryloyl-11-chloro-10-(2-fluoro-6-hydroxyphenyl)-8-(2-isopropyl-4-methylpyridin-3-yl)-6-methyl-2,3,4,4a,6,8-hexahydro-1H-pyrazino[1′,2′:4,5]pyrazino[2,3-c][1,8]naphthyridine-5,7-dione], the “Crystalline form change on heating (variable-temperature XRPD)” value in data set [3] (holding at 30° C. for 20 minutes and heating to 100 C in a N2 atmosphere) was “no significant crystalline form changes were observed”.
